Assays:
Per1 = Per1 mRNA within the SCN after intraperitoneal injection; format: in vivo, mice; conditions: 4 h after intraperitoneal injection
Excerpt: SCN Tissue Collection: Animals were housed under a 12:12 LD cycle for 2 weeks with food and water ad libitum. Animals then received either a drug injection with a alteration in the light dark cycle as described in the experiment and at set points following drug administration were sacrificed by cervical dislocation. Sham-treated mice not given a light pulse were dissected at each time point. Brains were removed and placed into a brain matrix (Kent Scientific, Torrington CT, USA). Per2::Luc transgenic animals (as reported in Yoo et al, Proc Natl Acad Sci USA. 2004 Apr. 13; 101(15):5339-46) were obtained from Prof Joseph Takahashi, Northwestern University. […]
Total RNA was extracted using the microRNeasy column method (Qiagen, Hilden, Germany). Quality and quantity of RNA were measured using an Agilent Bioanalyzer and a Nanodrop1000 (Thermo Fisher Scientific, Waltham, MA USA), respectively.
RNA samples were prepared as described for microarray hybridisation. cDNA was synthesized with a qScript cDNA synthesis kit (Quanta Biosciences, Gaithersburg, MD), and quantitative PCR (qPCR) was conducted with Sybr green I and an SDS7700 thermal cycler (Applied Biosystems, Foster City, CA). Relative quantification of transcript levels was done as described previously (Peirson et al., Nucleic Acids Res. 2003 Jul. 15; 31(14):e73.). […]

[1] = system: Bmal1::Luc reporter U2OS cells; assay: Bmal1::Luc reporter U2OS cells circadian rhythm; format: cell-based; conditions: 10 uM
SCN electrical activity = assay: In vivo recording from SCN electrode implanted animals; conditions: intraperitoneal injection, 5 mg/kg

With Nc1nc(-c2ccccc2)c2c(n1)-c1cc(OCCN3CCOCC3)ccc1C2=O [JNJ40255293, 2-amino-8-[2-(4-morpholinyl)ethoxy]-4-phenyl-5H-indeno[1,2-d]pyrimidin-5-one] the “Per1 mRNA levels within the SCN” value (Per1) was “increase”, the period length [1] was “increases in period length” and the “rhythms after washout of drug” value [1] was “revert to normal rhythms after washout of drug”. The “phase of SCN electrical activity” value (SCN electrical activity) was “marked phase shift”.
